Experimental data taken from ChEMBL document CHEMBL1201862, “PubChem BioAssay data set” (2004).
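96-well plates; 48 h exposure; 5 concentrations. Endpoints by linear interpolation between flanking doses. Not reached: highest tested concentration assigned. Here, GI50 denotes the concentration required for 50% inhibition of growth.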 The source made the active and inactive calls. Rule as the data show it: active = GI50 up to about 1.1 µM and inactive = higher.

Legend:
Assay in all cases: DTP human tumour cell line panel, 48 h
HL-60 = system: HL-60
HCC 2998 = system: HCC 2998
NCI-H522 = system: NCI-H522
RXF 393 = system: RXF 393
HOP-62 = system: HOP-62
LOX IMVI = system: LOX IMVI
NCI-H23 = system: NCI-H23
KM12 = system: KM12
PC-3 = system: PC-3
NCI-H460 = system: NCI-H460
IGROV-1 = system: IGROV-1
TK-10 = system: TK-10
SF-295 = system: SF-295
CAKI-1 = system: CAKI-1
DU-145 = system: DU-145
MOLT-4 = system: MOLT-4
A498 = system: A498
NCI-H226 = system: NCI-H226
UACC-62 = system: UACC-62
SK-MEL-28 = system: SK-MEL-28

Measured: GI50

C=CCCCCCCCCCOC1C=CC(OC(C)=O)C(COC(C)=O)O1 (stereo unspecified)
inactive: HL-60 24.2 µM | HCC 2998 39.8 µM | NCI-H522 26.5 µM | RXF 393 > 100 µM | HOP-62 83.8 µM | LOX IMVI 34.2 µM | NCI-H23 32.1 µM | KM12 26.9 µM | PC-3 32 µM | NCI-H460 38.7 µM | IGROV-1 27 µM | TK-10 44.3 µM | SF-295 72.9 µM | CAKI-1 80.5 µM | DU-145 > 100 µM | MOLT-4 24.5 µM | A498 > 100 µM | NCI-H226 > 100 µM | UACC-62 46.8 µM | SK-MEL-28 > 100 µM

COC(=O)c1c(O)ccc2c1c1c(n2Cc2ccc(OC)cc2)C(=O)c2ccccc2C1=O
inactive: HCC 2998 2.97 µM | NCI-H522 4.1 µM | RXF 393 10.7 µM | HOP-62 16.3 µM | LOX IMVI 5.85 µM | NCI-H23 11 µM | KM12 15.6 µM | PC-3 5.2 µM | NCI-H460 3.75 µM | IGROV-1 6.21 µM | TK-10 45.7 µM | SF-295 14.2 µM | CAKI-1 29.4 µM | DU-145 18.2 µM | A498 20.5 µM | NCI-H226 10.4 µM | SK-MEL-28 17.9 µM
active: HL-60 0.308 µM | MOLT-4 0.139 µM

O=c1[nH]c(=O)n(C2CC(O)C(COP(=O)(O)OC3CC(n4cc(F)c(=O)[nH]c4=O)OC3COP(=O)(O)OC3CC(n4cc(F)c(=O)[nH]c4=O)OC3COP(=O)(O)OC3CC(n4cc(F)c(=O)[nH]c4=O)OC3COP(=O)(O)OC3CC(n4cc(F)c(=O)[nH]c4=O)OC3COP(=O)(O)OC3CC(n4cc(F)c(=O)[nH]c4=O)OC3COP(=O)(O)OC3CC(n4cc(F)c(=O)[nH]c4=O)OC3COP(=O)(O)OC3CC(n4cc(F)c(=O)[nH]c4=O)OC3COP(=O)(O)OC3CC(n4cc(F)c(=O)[nH]c4=O)OC3COP(=O)(O)OC3CC(n4cc(F)c(=O)[nH]c4=O)OC3CO)O2)cc1F (stereo unspecified)
inactive: KM12 3.59 µM
active: HL-60 0.0126 µM | HCC 2998 0.0234 µM | NCI-H522 0.015 µM | RXF 393 0.217 µM | HOP-62 < 0.005 µM | LOX IMVI < 0.005 µM | NCI-H23 0.0502 µM | PC-3 0.0767 µM | NCI-H460 < 0.005 µM | IGROV-1 0.0435 µM | TK-10 0.493 µM | SF-295 < 0.005 µM | CAKI-1 < 0.005 µM | DU-145 < 0.005 µM | MOLT-4 0.0052 µM | A498 < 0.005 µM | NCI-H226 0.194 µM | UACC-62 < 0.005 µM | SK-MEL-28 0.286 µM

COC(c1ccsc1)C(C#N)(C#N)/N=C/c1ccsc1 (stereo unspecified)
inactive: HL-60 3.18 µM | HCC 2998 19.8 µM | NCI-H522 6.73 µM | RXF 393 12.7 µM | HOP-62 17.4 µM | LOX IMVI 10.3 µM | NCI-H23 13.1 µM | KM12 16.7 µM | PC-3 14 µM | NCI-H460 18.4 µM | IGROV-1 17.1 µM | TK-10 17.7 µM | SF-295 18.1 µM | CAKI-1 4.68 µM | DU-145 15.2 µM | MOLT-4 13.9 µM | A498 14.9 µM | NCI-H226 21.6 µM | UACC-62 15.2 µM | SK-MEL-28 18.6 µM

CO[C@H]1O[C@@H]2CO[C@@H](c3ccccc3)O[C@H]2[C@@H]2CC=CCC[C@]12O
inactive: HL-60 24.8 µM | HCC 2998 18.5 µM | NCI-H522 16.5 µM | RXF 393 62.1 µM | HOP-62 > 100 µM | LOX IMVI 74.3 µM | NCI-H23 36.6 µM | KM12 65.3 µM | PC-3 40.9 µM | NCI-H460 35.7 µM | IGROV-1 59.6 µM | TK-10 93.5 µM | SF-295 74.5 µM | CAKI-1 > 100 µM | DU-145 > 100 µM | MOLT-4 25.1 µM | A498 32.1 µM | NCI-H226 > 100 µM | UACC-62 63.4 µM | SK-MEL-28 > 100 µM

CC(C)(C)OC(=O)NC1CC2(C=C(Br)C(=O)C(Br)=C2)OC1=O (stereo unspecified)
inactive: HL-60 2.47 µM | HCC 2998 11.6 µM | NCI-H522 1.73 µM | RXF 393 3.58 µM | HOP-62 18.7 µM | LOX IMVI 13 µM | NCI-H23 7.85 µM | KM12 20.9 µM | PC-3 13.9 µM | NCI-H460 18.4 µM | IGROV-1 16.4 µM | TK-10 5.38 µM | SF-295 16.4 µM | CAKI-1 3.48 µM | DU-145 13 µM | A498 23.3 µM | NCI-H226 18.1 µM | UACC-62 17.6 µM | SK-MEL-28 21.1 µM
active: MOLT-4 0.401 µM

CC1=NN(c2nc(N)nc(/C(C#N)=C\c3csc([N+](=O)[O-])c3)n2)C(C)(C)C1
inactive: HL-60 5.22 µM | HCC 2998 31.7 µM | NCI-H522 21.3 µM | RXF 393 20.6 µM | HOP-62 26.6 µM | LOX IMVI 71.3 µM | NCI-H23 32.1 µM | KM12 57.9 µM | PC-3 20.6 µM | NCI-H460 32.7 µM | IGROV-1 49.3 µM | TK-10 34.2 µM | SF-295 45.5 µM | CAKI-1 44.5 µM | DU-145 33.4 µM | MOLT-4 > 100 µM | A498 > 100 µM | NCI-H226 25.8 µM | SK-MEL-28 59 µM

C=C1C[C@@H]2O[C@H]3[C@H]4[C@@H](C[C@@H](C)[C@@H](OC(C)=O)[C@H]42)[C@@H](C)CO[C@@]3(C)[C@H](OC(C)=O)C[C@H]1O
inactive: HL-60 16.9 µM | HCC 2998 > 100 µM | NCI-H522 48 µM | RXF 393 38.7 µM | LOX IMVI 17.1 µM | NCI-H23 > 100 µM | KM12 > 100 µM | PC-3 95.9 µM | NCI-H460 70.8 µM | IGROV-1 > 100 µM | TK-10 > 100 µM | SF-295 > 100 µM | CAKI-1 > 100 µM | DU-145 > 100 µM | MOLT-4 53 µM | A498 > 100 µM | NCI-H226 > 100 µM | UACC-62 > 100 µM | SK-MEL-28 > 100 µM

COC(=O)c1ccc(/N=N/N(C)COc2ccc(C#N)cc2)cc1
inactive: HL-60 16.6 µM | HCC 2998 62.1 µM | NCI-H522 > 100 µM | RXF 393 95.5 µM | HOP-62 > 100 µM | LOX IMVI 56.1 µM | NCI-H23 > 100 µM | KM12 70.8 µM | PC-3 > 100 µM | NCI-H460 18.2 µM | IGROV-1 > 100 µM | TK-10 > 100 µM | SF-295 44.8 µM | CAKI-1 69 µM | DU-145 40.4 µM | MOLT-4 82.2 µM | A498 > 100 µM | NCI-H226 > 100 µM | SK-MEL-28 > 100 µM
